Measured values published in patent US20240368174A1, “Antiviral Heterocyclic Compounds” (Enanta Pharmaceuticals, Inc., priority 2023, published 2024).

What was measured:
[1] = tested on: HMPV clinical isolate A2 strain TN 94-49; assay: HMPV antiviral assay, Method 1 (LLC-MK2 cells, ATP-Lite); format: cell-based; settings: human metapneumovirus, hMPV A2 TN/94-49, LLC-MK2 cells
Experimental: In vitro HMPV antiviral activity was evaluated using the clinical isolate A2 strain TN 94-49 (obtained from Dr. John Williams, Vanderbilt University, Tennessee) and LLC-MK2 cells (ATCC #CCL-7), an immortalized kidney epithelial cell line from Macaca mulatta. Compounds were resuspended in dimethyl sulfoxide (DMSO) at 10 mM, serially diluted and added to a 384-well source plate. Subsequently, the compounds were diluted and transferred onto 384-well assay plates using the Echo-650 automated liquid handling system (Beckman Coulter, Indiana). The test compounds were assessed in duplicate at a top concentration of 2 μM followed by 2.5-fold serial dilutions to give a total of 10 concentration points. DMSO control wells were also included on the assay plates and were either infected or not, acting as positive and negative controls. A2 TN 94-49 virus infections were performed in-suspension with LLC-MK2 cells. The cells were washed twice with PBS and removed from the cell-culture flask with 0.25% trypsin-EDTA (Thermo Fisher Scientific, MA). The trypsin-EDTA was inactivated by resuspending in 2% fetal bovine serum (FBS) and OptiMEM (ThermoFisher Scientific, MA) containing 1% penicillin-streptomycin. Cells were pelleted by centrifuging for 5 minutes at 800 rpm, the supernatant was removed, and cells were re-suspended and washed in PBS plus 100 μg/mL CaCl2). This step was performed twice. Cells were then re-suspended in serum-free (SF)-OptiMEM containing 4 μg/mL TPCK-Trypsin (Sigma Aldrich, MO), 1% penicillin-streptomycin (ThermoFisher Scientific, MA) and 100 μg/mL CaCl2). Cells were counted and seeded at a density of 5,000 cells/well, 12.5 μL/well. Virus infections were done at a multiplicity of infection (MOI) of 0.005 with 12.5 μL added per well. Virus infections were performed in infection media which contained SF-OptiMEM, 100 μg/mL CaCl2) and 1% penicillin-streptomycin. HMPV viral stocks are suspended in infection media+5% glycerol, thus an equal volume of infection media+5% glycerol was added to uninfected wells to equalize the final % glycerol across all wells of the assay plate. The final concentration of TPCK-trypsin was 2 μg/mL. The assay plates were incubated at 37° C., 5% CO2 for 7 days. After 7 days incubation, 12.5 μL of ATP-Lite (PerkinElmer, MA) was added to each well and the raw luminescence values were determined using the Envision 2104 (Perkin Elmer, MA). The average of the raw luminescence values for the cells and virus only positive control wells was subtracted from all conditions tested and the percent cell health was determined by dividing these values by the average of the cells only negative control wells. EC50 values were then calculated by non-linear regression using a four-parameter curve logistic equation. The curve fit model employed was XLFit Dose Response One Site Model 200: y=(A+(B/(1+((x/C)^D)))), where A is the minimum y value, B is the maximum y value, C is the log EC50 value, and D is the slope factor.

[2] = tested on: HMPV clinical isolate A2 strain TN 94-49; assay: HMPV antiviral assay, Method 2 (LLC-MK2 cells with CP-100-356, ATP-Lite); format: cell-based; settings: human metapneumovirus; hMPV A2 TN/94-49, LLC-MK2 cells with CP-100-356, Method 2
How it was run: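 LLC-MK2 rhesus kidney cells (5,000/well) infected in suspension with HMPV A2 TN 94-49 at MOI 0.16, in serum-free medium with final 2 μg/mL TPCK-trypsin and 2 μM CP-100-356. Compounds tested in duplicate from 200 nM, 2.5-fold, 10 points; 7 days at 37 °C. Cell health by ATP-Lite luminescence; EC50 by four-parameter fit.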

EC50 [1] | EC50 [2] | Structure (SMILES)
< 500 nM | < 200 nM | COc1ccc([C@](O)(CNC(=O)c2cc(OC)c3nn(C4CC4)cc3c2)c2cc3c(c(-c4cc(Cl)c(F)cc4F)n2)OC[C@]3(C)C(N)=O)cc1 [Example 165]
< 500 nM | < 200 nM | COc1cc(C(=O)NC[C@@](O)(c2ccccc2)c2cc3c(c(-c4ccc(F)c(Cl)c4Cl)n2)OC[C@]3(C)C(N)=O)cc2cn(C3(F)CC3)nc12 [Example 259]
< 500 nM | < 200 nM | COc1cc(C(=O)NC[C@@](O)(c2cccc(F)c2)c2cc3c(c(-c4cc(Cl)c(F)cc4F)n2)OC[C@]3(C)C(N)=O)cc2cn(C3CC3)nc12 [Example 132]
< 500 nM | < 200 nM | COc1cc(C(=O)NC[C@@](O)(c2ccccc2)c2cc3c(c(-c4cccc(Cl)c4Cl)n2)OC[C@]3(C)C(N)=O)cc2cn(C3(F)CC3)nc12 [Example 262]
< 500 nM | < 200 nM | COc1cc(C(=O)NC[C@@](O)(c2ccccc2)c2cc3c(c(-c4ccc5c(c4)OC(F)(F)O5)n2)OC[C@]3(C)C(N)=O)cc2cn(C3CC3)nc12 [Example 18]
< 500 nM | < 200 nM | COc1cc(C(=O)NC[C@@](O)(c2ccccc2)c2cc3c(c(-c4ccc(F)c(Cl)c4Cl)n2)OC[C@]3(C)C(N)=O)cc2cc(Cl)cnc12 [Example 294]
< 500 nM | < 200 nM | C[C@]1(C(N)=O)COc2c1cc([C@@](O)(CNC(=O)c1cc(OC3CC3)n3nc(C4CC4)cc3c1)C1CC1)nc2-c1cc(Cl)c(F)cc1F [Example 4]
< 500 nM | < 200 nM | COc1cc(C(=O)NC[C@](O)(c2cc3c(c(-c4ccc(F)c(Cl)c4Cl)n2)OC[C@]3(C)C(N)=O)C(F)(F)F)cc2cn(C(F)F)nc12 [Example 66]
< 500 nM | < 200 nM | COc1cc(C(=O)NC[C@@](O)(c2cccc(F)c2)c2cc3c(c(-c4cc(C(F)(F)F)c(F)cc4F)n2)OC[C@]3(C)C(N)=O)cc2cn(C3(F)CC3)nc12 [Example 296]
< 500 nM | < 200 nM | COc1cc(C(=O)NC[C@@](O)(c2ccccc2)c2cc3c(c(-c4cc(Cl)c(F)cc4F)n2)OC[C@]3(C)C(N)=O)cc2cc(Br)cnc12 [Example 185]
< 500 nM | < 200 nM | COc1cc(C(=O)NC[C@](O)(c2cc3c(c(-c4cc(F)c(F)cc4F)n2)OC[C@]3(C)C(N)=O)C2CC2)cc2cc(C)c(F)nc12 [Example 21]
< 500 nM | < 200 nM | C[C@]1(C(N)=O)COc2c1cc([C@@](O)(CNC(=O)c1cc(OC3CC3)c3nn(C(F)F)cc3c1)c1ccc(F)cc1)nc2-c1ccc2c(c1Cl)OC(F)(F)O2 [Example 265]
< 500 nM | < 200 nM | COc1ccc([C@](O)(CNC(=O)c2cc(OC)c3nn(C4(F)CC4)cc3c2)c2cc3c(c(-c4cc(Cl)c(F)cc4F)n2)OC[C@]3(C)C(N)=O)cc1 [Example 166]
< 500 nM | < 200 nM | C[C@]1(C(N)=O)COc2c1cc([C@@](O)(CNC(=O)c1cc(OC3CC3)c3nn(C(F)F)cc3c1)C1CC(F)(F)C1)nc2-c1cc(F)c(F)cc1F [Example 34]
< 500 nM | < 200 nM | C[C@]1(C(N)=O)COc2c1cc([C@@](O)(CNC(=O)c1cc(OC3CC3)c3nn(C4(F)CC4)cc3c1)c1ccccc1)nc2-c1cccc(Cl)c1Cl [Example 266]
< 500 nM | < 200 nM | COc1cc(C(=O)NC[C@](O)(c2cc3c(c(-c4ccc(F)c(C)c4Cl)n2)OC[C@]3(C)C(N)=O)C2CC2)cc2cn(C3CC3)nc12 [Example 69]
< 500 nM | – | [2H]C([2H])([2H])c1nc2c(OC)cc(C(=O)NC[C@](O)(c3cc4c(c(-c5cc(F)c(F)cc5F)n3)OC[C@]4(C)C(N)=O)C3CC3)cc2cc1Br [Example 7]
< 500 nM | – | C[C@]1(C(N)=O)COc2c1cc([C@@](O)(CNC(=O)c1cc(Cl)c3nn(C4CC4)cc3c1)C1CC1)nc2-c1ccc2c(c1Cl)OC(F)(F)O2 [Example 35]
< 500 nM | – | C[C@]1(C(N)=O)COc2c1cc([C@@](O)(CNC(=O)c1ccc3nc(N)sc3c1)c1ccccc1)nc2-c1ccc2c(c1Cl)OC(F)(F)O2 [Example 256]

EC50 [1] | EC50 [2] | Structure (SMILES)
< 500 nM | – | COc1cc(C(=O)NC[C@](O)(c2cc3c(c(-c4cc(Cl)c(F)cc4F)n2)OC[C@]3(C)C(N)=O)c2ccccc2F)cc2cc(C3CC3)nn12 [Example 137]
< 500 nM | – | COc1cc(C(=O)NC[C@@](O)(c2cccc(F)c2)c2cc3c(c(-c4ccc(F)c(Cl)c4Cl)n2)OC[C@]3(C)C(N)=O)cc2oc(C)nc12 [Example 279]
< 500 nM | – | COc1cc(C(=O)NC[C@@](O)(c2ccc(F)cc2)c2cc3c(c(-c4ccc(F)c(Cl)c4Cl)n2)OC[C@]3(C)C(N)=O)cc2cc(C3CC3)nn12 [Example 45]
< 500 nM | – | [2H]c1c([2H])c([2H])c([C@](O)(CNC(=O)c2cc(OC)c3nn(C4CC4)cc3c2)c2cc3c(c(-c4cc(Cl)c(F)cc4F)n2)OC[C@]3(C)C(N)=O)c([2H])c1[2H] [Example 169]
> 500 nM | – | COc1cc(C(=O)NC[C@@](O)(c2ccc(F)cc2)c2cc3c(c(-c4ccc5c(c4Cl)OC(F)(F)O5)n2)OC[C@]3(C)C(N)=O)cc2cc(C(F)(F)F)cnc12 [Example 26]
< 500 nM | – | COc1cc(C(=O)NC[C@@](O)(c2ccccc2)c2cc3c(c(-c4ccc5c(c4Cl)OC(F)(F)O5)n2)OC[C@]3(C)C(N)=O)cc2cc(C3CC3)nn12 [Example 254]
< 500 nM | – | COc1cc(C(=O)NC[C@@](O)(c2cccc(F)c2)c2cc3c(c(-c4ccc5c(c4Cl)OC(F)(F)O5)n2)OC[C@]3(C)C(N)=O)cc2cn(C3CC3)nc12 [Example 274]
> 500 nM | – | COc1cc(C(=O)NC[C@](O)(c2cc3c(c(-c4ccc5ccsc5c4)n2)OC[C@]3(C)C(N)=O)C2CC2)cc2cn(C3CC3)nc12 [Example 48]
< 500 nM | – | C[C@]1(C(N)=O)COc2c1cc([C@@](O)(CNC(=O)c1cc(OC(F)F)c3nn(C4CC4)cc3c1)C1CC1)nc2-c1cc(F)c(F)cc1F [Example 6]
> 500 nM | – | COc1cc(C(=O)NC[C@](O)(c2cc3c(c(-c4cc(Cl)c(Cl)cc4Cl)n2)OC[C@]3(C)C(N)=O)C2CC2)cc2cn(C3CC3)nc12 [Example 62]
< 500 nM | – | [2H]C([2H])([2H])c1nc2c(OC)cc(C(=O)NC[C@@](O)(c3ccc(F)cc3)c3cc4c(c(-c5cc(Cl)c(F)cc5F)n3)OC[C@]4(C)C(N)=O)cc2s1 [Example 16]
< 500 nM | – | [2H]C([2H])([2H])c1nc2ccc(C(=O)NC[C@@](O)(c3ccccc3)c3cc4c(c(-c5cc(Cl)c(F)cc5F)n3)OC[C@]4(C)C(N)=O)cc2o1 [Example 87]
> 500 nM | – | COc1cc(C(=O)NC[C@@](O)(c2cc3c(c(-c4ccc(F)cc4O)n2)OC[C@]3(C)C(N)=O)C2CC2)cc2cn(C3CC3)nc12 [Example 64]
> 500 nM | – | COc1cc(C(=O)NC[C@@](O)(c2cc3c(c(-c4cc(F)c(F)c(F)c4Cl)n2)OC[C@]3(C)C(N)=O)C(F)(F)F)cc2cn(C3CC3)nc12 [Example 58]
< 500 nM | – | COc1cc(C(=O)NC[C@@](O)(c2ccccc2)c2cc3c(c(-c4ccc(F)c(Cl)c4Cl)n2)OC[C@]3(C)C(N)=O)cc2cn(C3CC3)nc12 [Example 257]
< 500 nM | – | COc1cc(C(=O)NC[C@@](O)(c2ccsc2)c2cc3c(c(-c4cc(Cl)c(F)cc4F)n2)OC[C@]3(C)C(N)=O)cc2cn(C3(F)CC3)nc12 [Example 175]
< 500 nM | – | COc1cc(C(=O)NC[C@@](O)(c2ccsc2)c2cc3c(c(-c4cc(Cl)c(F)cc4F)n2)OC[C@]3(C)C(N)=O)cc2cn(C(F)F)nc12 [Example 174]
< 500 nM | – | COc1cc(C(=O)NC[C@@](O)(c2ccc(F)cc2)c2cc3c(c(-c4ccc(F)c(Cl)c4Cl)n2)OC[C@]3(C)C(N)=O)cc2cn(C(F)F)nc12 [Example 42]
> 500 nM | – | COc1cc(F)ccc1-c1nc([C@@](O)(CNC(=O)c2cc(OC)c3nn(C4CC4)cc3c2)C2CC2)cc2c1OC[C@]2(C)C(N)=O [Example 67]
